Test results published in patent US20180105492A1, “COMPOUNDS DERIVED FROM 3-ALKYLAMINE-1H-INDOLYL ACRYLATE AND THEIR USE IN THE TREATMENT OF NEURODEGENERATIVE DISEASES” (FUNDACION PARA LA INVESTIGACION BIOMEDICA DEL HOSPITAL …, priority 2014, published 2018).

Experiments:
Type in all cases: cell-based
HepG2 cells = assay: Hepatotoxicity in HepG2 cell line, reduction of cell viability (MTT); settings: 24 h incubation, MTT, concentration reducing viability to 50% of basal
Protocol: (§1) In order to assess cellular viability, we measured the metabolic reduction of 3-(4,5-Dimethylthiazol-2-yl)-2,5 diphenyltetrazolium bromide (MTT). MTT is an indirect assay to measure cellular viability. It is a colorimetric method based on the reduction of 3-(4,5-Dimethylthiazol-2-yl)-2,5 diphenyltetrazolium. This process is performed by the mitochondrial enzyme succinate-dehydrogenase present in metabolic active cells. Thus, the water-soluble yellow MTT (tetrazolium salt) is transformed into a insoluble purple compound (formazan). Quantity of living cells is directly proportional to the quantity of formazan (Mosmann, 1983, J Immunol Methods, 65: 55-63). […] Therefore, with this assay we can measure cellular surviving and proliferation and also, we can determine the cytotoxicity of potential neuroprotective compounds. In order to assess cellular viability in SH-SY5Y cell line, we added 30 μl/well of MTT (5 mg/mL) and after 2 h, medium was carefully removed to avoid losing the formazan and was diluted in 300 μL of DMSO. Afterwards, samples were transferred to a 96 well-plate and the absorbance was measured at 570 nm using a absorbance/fluorescence reader FluoStar optima®. Every MTT assay was performed in triplicates. Absorbance values obtained with the toxic alone were subtracted to the absorbance values obtained in basal conditions (without treatment). That result was considered as the 100% of cell death and the values obtained with the compounds in the presence of the toxic stimulus were normalized as percentages of that value. For determining the surviving percentage, those percentages of cell death were subtracted to 100.
In general, compounds capable of inducing the transcription factor Nrf2 may have a hepatotoxic effect, due to the electrophilic character that generally characterizes them. The derivatives objects of this invention were designed to avoid this toxicity and to improve its safety profile. The liver plays an essential role in the metabolism of endogenous and exogenous compounds. Hepatocytes capture these compounds and after metabolizing them, they are eliminated by different mechanisms. Metabolized compounds usually have less pharmacological activity and less toxicity than the corresponding active principles. However, in certain cases, the active principles or their metabolites may be toxic to the hepatocytes. Hepatic toxicity is one of the leading causes of drug withdrawal from preclinical studies. […] In addition, these cells have been defined by the European Medicines Agency (EMA) as a model of hepatoxicity by measuring the induction of apoptosis and/or cell survival. Therefore, the safety profile of the compounds object of the present invention was evaluated in the HepG2 hepatic cancer cell line. HepG2 cells were cultured in T75 flask using EMEM as culture medium supplemented with non-essential amino acids, 10% fetal bovine serum, 50 units/mL penicillin and 50 μg/mL streptomycin (reagents from GIBCO, Madrid, Spain). Cultures were maintained in an incubator with an O2/CO2 gas mixture (95/5%) at 37° C. with a humid atmosphere and two passes per week were made when they reached 90% of confluence. All experiments were performed on cells that were between passages 5 and 15. For the experiments, the cells were plated in 96-well plates at a density of 4×10 ^4 cells/well in 200 μl of culture medium. After 24 h in culture, the medium was removed and replaced with 100 μL of the corresponding solution of the compounds of the invention in culture medium at the selected concentrations (1, 10, 30 and 100 μM). The compounds were studied in triplicate, including in each experiment 3 wells without treatment, which was considered as 100% of viability (baseline conditions). After 24 h of incubation with the treatments, cell viability was assessed by the MTT reduction method. […]

SH-SY5Y cells [1] = assay: Neuroprotection against rotenone/oligomycin A, pre- and co-incubation model, MTT; settings: Homo sapiens, compound 1 μM pre-incubation 24 h and co-incubation 24 h with Rot/Olig (30/10 μM); for inhibition at 1 µM: read-out: % Protection; for viability at 1 µM: read-out: % Survival
Protocol: (§2) SH-SY5Y cells [ECACC 94030304], in 5 to 16 passage after defreezing were maintained in Eagle media modified by Dulbecco (DMEM) containing 15 non-essential amino acids and supplemented with 10% fetal bovine serum, 1 mM glutamine, 50 units/mL penicillin/streptomycin (obtained from GIBCO, Madrid, Spain). Cells were seeded in flasks containing supplemented media and were maintained in an incubator at 37° C. and 5% CO2. 1:4 passes were performed twice per week. For the experiments, cells were seeded in 24 well-plates at a density of 2×10^5 cells/well, or in 96 well-plates at a density of 8×10^4 cells/well. For cytotoxicity experiments, cells were treated with the compounds before confluence with DMEM media supplemented with fetal bovine serum 1%.
as §1
(§3) Neuroprotection elicited by the compounds of the invention 1-16: The activation of Nrf2-ARE pathway by different compounds exerts neuroprotective effects against toxic models based on oxidative stress via the expression of cytoprotective genes. […] We evaluated the neuroprotective potential of the compounds using the human neuroblastoma cell line using the following cytotoxicity models: 1) oxidative stress induced by rotenone+oligomycin, both blockers of the electron transport chain as previously described (Halliwell, 1992, J Neurochem, 59: 1609-23, Newhouse y col., 2004, Toxicol Sci, 79: 137-46), and 2) cytotoxicity induced by the electrophilic compound Menadione. This compound produces oxidative stress after being metabolized by microsomal enzymes in the cell which produces hydroxyl radical and oxygen reactive species. As a consequence, there is a depolarization of mitochondrial membrane generating a release of apoptotic factors such as cytochrome c, and activating the caspase cascade (Loor y col., 2010, Free Radic Biol Med, 49: 1925-36, Chuang y col., 2002, Cancer Res, 62: 6246-54). Caspase 3 activation can produce the lysis of proteins and induce DNA fragmentation, leading to cell death (Gerasimenko y col., 2002, J Cell Sci, 115: 485-97).
In this model, a 24 h pre-incubation period was performed in presence of the compounds synthesized at a concentration of 1 μM. Thereafter, a 24 h co-incubation period was added, in presence of the compounds with rotenone/oligomycin A (30 μM/10 μM) mixture. After 24 h, cell viability was assessed by the MTT reduction method. […]

SH-SY5Y cells [2] = assay: Neuroprotection against oxidative stress induced by menadione, pre- and co-incubation, MTT; settings: Homo sapiens, 24 h, compound 1 μM pre- and co-incubation, Menadione (8 mM); for viability at 1 µM: read-out: % Survival
Protocol: as §2, §1, §3
To further confirm the neuroprotective capacity in another model of oxidative stress, menadione was selected as toxic stimulus. […]

Structure (SMILES)	HepG2 LD50 (HepG2 cells)	inhibition at 1 µM (SH-SY5Y cells [1])	viability at 1 µM (SH-SY5Y cells [1])	% protection against menadione toxicity at 1 µM (SH-SY5Y cells [2])	viability at 1 µM (SH-SY5Y cells [2])
C/C=C/C(=O)Oc1ccc2[nH]cc(CCNC(C)=O)c2c1 [Compound 1, 3-(2-acetamidoethyl)-1H-indol-5-yl (E)-2-butenoate]	>100 µM	28.8%	77 ± 1.3%	63.3%	87.7 ± 1.74%
CC(=O)NCCc1c[nH]c2ccc(OC(=O)/C=C/c3ccccc3)cc12 [Compound 2, 3-(2-acetamidoethyl)-1H-indol-5-yl cinnamate]	>100 µM	48%	73.7 ± 4.65%	32.5%	74 ± 3.18%
CC(=O)NCCc1c[nH]c2ccc(OC(=O)/C=C/c3ccc(C)cc3)cc12 [Compound 3, 3-(2-acetamidoethyl)-1H-indol-5-yl (E)-3-(4-methylphenyl)acrylate]	>100 µM	55.1%	76.4 ± 3.89%	25%	71.4 ± 2.43%
COc1ccccc1/C=C/C(=O)Oc1ccc2[nH]cc(CCNC(C)=O)c2c1 [Compound 4, 3-(2-acetamidoethyl)-1H-indol-5-yl (E)-3-(2-methoxyphenyl)acrylate]	>100 µM	28.1%	69.9 ± 4.17%	67.1%	90.5 ± 1.97%
COc1cccc(/C=C/C(=O)Oc2ccc3[nH]cc(CCNC(C)=O)c3c2)c1 [Compound 5, 3-(2-acetamidoethyl)-1H-indol-5-yl (E)-3-(3-methoxyphenyl)acrylate]	>100 µM	57.6%	78.7 ± 4.37%	38.1%	76 ± 3.31%
COc1ccc(/C=C/C(=O)Oc2ccc3[nH]cc(CCNC(C)=O)c3c2)cc1 [Compound 6, 3-(2-acetamidoethyl)-1H-indol-5-yl (E)-3-(4-methoxyphenyl)acrylate]	>100 µM	44.1%	71.6 ± 3.94%	35.8%	74.7 ± 2.91%
CC(=O)NCCc1c[nH]c2ccc(OC(=O)/C=C/c3ccc(O)cc3)cc12 [Compound 7, 3-(2-acetamidoethyl)-1H-indol-5-yl (E)-3-(4-hydroxyphenyl)acrylate]	>100 µM	39.8%	79.7 ± 2.37%	61.8%	86.8 ± 3.24%
COc1cc(/C=C/C(=O)Oc2ccc3[nH]cc(CCNC(C)=O)c3c2)ccc1O [Compound 8, 3-(2-acetamidoethyl)-1H-indol-5-yl (E)-3-(4-hydroxy-3-methoxyphenyl)acrylate]	>100 µM	41.7%	81.1 ± 1.71%	69.4%	89.9 ± 1.86%
CC(=O)NCCc1c[nH]c2ccc(OC(=O)/C=C/c3ccc(F)cc3)cc12 [Compound 9, 3-(2-acetamidoethyl)-1H-indol-5-yl (E)-3-(4-fluorophenyl)acrylate]	>100 µM	40.5%	69.6 ± 2.63%	29.6%	71.6 ± 3.74%
CC(=O)NCCc1c[nH]c2ccc(OC(=O)/C=C/c3ccc(Br)cc3)cc12 [Compound 10, 3-(2-acetamidoethyl)-1H-indol-5-yl (E)-3-(4-bromophenyl)acrylate]	>100 µM	40.8%	70.4 ± 2.21%	27.6%	72.4 ± 3.75%
CC(=O)NCCc1c[nH]c2ccc(OC(=O)/C=C/c3ccc(Cl)cc3)cc12 [Compound 11, 3-(2-acetamidoethyl)-1H-indol-5-yl (E)-3-(4-chlorophenyl)acrylate]	>100 µM	28.4%	70.2 ± 3.7%	57%	85.7 ± 2.93%
CC(=O)NCCc1c[nH]c2ccc(OC(=O)/C=C/c3ccc(Cl)c(Cl)c3)cc12 [Compound 12, 3-(2-acetamidoethyl)-1H-indol-5-yl (E)-3-(3,4-dichlorophenyl)acrylate]	>100 µM	27.8%	69.9 ± 3.47%	59.3%	86.5 ± 3.04%
CC(=O)NCCc1c[nH]c2ccc(OC(=O)/C=C/c3ccccc3C(F)(F)F)cc12 [Compound 13, 3-(2-acetamidoethyl)-1H-indol-5-yl (E)-3-(2-(trifluoromethyl)phenyl)acrylate]	>100 µM	50.2%	73.8 ± 4.55%	36.2%	74.9 ± 2.19%
CC(=O)NCCc1c[nH]c2ccc(OC(=O)/C=C/c3cccc(C(F)(F)F)c3)cc12 [Compound 14, 3-(2-acetamidoethyl)-1H-indol-5-yl (E)-3-(3-(trifluoromethyl)phenyl)acrylate]	>100 µM	45.9%	72.6 ± 3.75%	44.8%	78.5 ± 3.03%
CC(=O)NCCc1c[nH]c2ccc(OC(=O)/C=C/c3ccc(C(F)(F)F)cc3)cc12 [Compound 15, 3-(2-acetamidoethyl)-1H-indol-5-yl (E)-3-(4-(trifluoromethyl)phenyl)acrylate]	>100 µM	47.6%	73 ± 2.99%	31.6%	73.2 ± 3.43%
CC(=O)NCCc1c[nH]c2ccc(OC(=O)/C=C/c3ccc([N+](=O)[O-])cc3)cc12 [Compound 16, 3-(2-acetamidoethyl)-1H-indol-5-yl (E)-3-(4-nitrophenyl)acrylate]	>100 µM	29.5%	76.5 ± 2.18%	53.6%	84.3 ± 2.15%
